Reference: US10435405B2, “Pyrazolopyridine compounds and uses thereof” (Incyte Corporation, priority 2016, dated 2019)

Target: HPK1 (Homo sapiens (Human), UniProt Q92918)
Test: HPK1 Kinase Binding Assay
Outline: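 Active HPK1 (added as 4 nM solution) was combined with compound (3-fold, 11-point series) and tracer 222 (18 nM) plus Eu-anti-GST antibody (4 nM) in 50 mM HEPES pH 7.5 with MgCl2 and DTT. After 1 h at 25 °C plates were read. Ki values were derived.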

Sequence of HPK1 (Q92918 1-346): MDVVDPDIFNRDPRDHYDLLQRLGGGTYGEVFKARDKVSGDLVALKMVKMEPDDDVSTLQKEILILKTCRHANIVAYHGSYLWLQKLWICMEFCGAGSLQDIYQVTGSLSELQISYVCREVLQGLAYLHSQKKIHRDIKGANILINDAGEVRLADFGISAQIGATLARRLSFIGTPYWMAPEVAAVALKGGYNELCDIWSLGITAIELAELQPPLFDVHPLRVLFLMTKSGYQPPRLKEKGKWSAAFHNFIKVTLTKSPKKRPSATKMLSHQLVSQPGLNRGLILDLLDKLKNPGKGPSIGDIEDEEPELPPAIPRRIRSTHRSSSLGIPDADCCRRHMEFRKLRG

| SMILES | Ki [nM] |
| --- | --- |
| Cn1cc(-c2n[nH]c3cnc(-c4c(F)cc5c(c4F)C(O)CC5)cc23)cn1 (stereo not shown) [Example 212, 5,7-Difluoro-6-(3-(1-methyl-1H-pyrazol-4-yl)-1H-pyrazolo[3,4-c]pyridin-5-yl)-2,3-dihydro-1H-inden-1-ol] | ≤ 100 |
| Cn1cc(-c2n[nH]c3cnc(-c4cccc(CNC5CCOCC5)c4C(F)(F)F)cc23)cn1 [Example 90, N-(3-(3-(1-Methyl-1H-pyrazol-4-yl)-1H-pyrazolo[3,4-c]pyridin-5-yl)-2-(trifluoromethyl)benzyl)tetrahydro-2H-pyran-4-amine] | ≤ 100 |
| CN1CCN(c2ccc(-c3n[nH]c4cnc(-c5c(F)cccc5CN)cc34)cc2)CC1 [Example 195, (3-Fluoro-2-(3-(4-(4-methylpiperazin-1-yl)phenyl)-1H-pyrazolo[3,4-c]pyridin-5-yl)phenyl)methanamine] | ≤ 100 |
| Cc1cccc(F)c1-c1cc2c(NC(=O)c3ccc(N4CCN(C)CC4)cc3N)n[nH]c2cn1 [Example 157, 2-Amino-N-(5-(2-fluoro-6-methylphenyl)-1H-pyrazolo[3,4-c]pyridin-3-yl)-4-(4-methylpiperazin-1-yl)benzamide] | ≤ 100 |
| Cn1cc(-c2n[nH]c3cnc(-c4c(F)cc(CNc5ccn(C)n5)cc4F)cc23)cn1 [Example 125, N-(3,5-Difluoro-4-(3-(1-methyl-1H-pyrazol-4-yl)-1H-pyrazolo[3,4-c]pyridin-5-yl)benzyl)-1-methyl-1H-pyrazol-3-amine] | ≤ 100 |
| CN(C)c1ccc(F)c(-c2cc3c(-c4cnn(C)c4)n[nH]c3cn2)c1F [Example 62, 2,4-Difluoro-N,N-dimethyl-3-(3-(1-methyl-1H-pyrazol-4-yl)-1H-pyrazolo[3,4-c]pyridin-5-yl)aniline] | ≤ 100 |
| CNCc1cc(F)c(-c2cc3c(-c4ccc(N5CCN(C(C)=O)CC5)cn4)n[nH]c3cn2)c(OC(F)F)c1 [Example 193, 1-(4-(6-(5-(2-(Difluoromethoxy)-6-fluoro-4-((methylamino)methyl)phenyl)-1H-pyrazolo[3,4-c]pyridin-3-yl)pyridin-3-yl)piperazin-1-yl)ethanone] | ≤ 100 |
| Cn1cc(-c2n[nH]c3cnc(-c4c(F)cc(C5CCCN5)cc4C(F)(F)F)cc23)cn1 (single isomer, unassigned) [Example 227, 5-(2-Fluoro-4-(pyrrolidin-2-yl)-6-(trifluoromethyl)phenyl)-3-(1-methyl-1H-pyrazol-4-yl)-1H-pyrazolo[3,4-c]pyridine] | ≤ 100 |
| Cc1cc(C2CCCN2)cc(F)c1-c1cc2c(-c3cnn(C)c3)n[nH]c2cn1 (single isomer, unassigned) [Example 171, 5-(2-Fluoro-6-methyl-4-(pyrrolidin-2-yl)phenyl)-3-(1-methyl-1H-pyrazol-4-yl)-1H-pyrazolo[3,4-c]pyridine] | ≤ 100 |
| CCc1ccc(C(=O)Nc2n[nH]c3cnc(-c4c(F)cccc4OC)cc23)cc1 [Example 8, 4-Ethyl-N-(5-(2-fluoro-6-methoxyphenyl)-1H-pyrazolo[3,4-c]pyridin-3-yl)benzamide] | ≤ 100 |
| COCCNC(=O)c1cc(F)c(-c2cc3c(-c4cnn(C)c4)n[nH]c3cn2)c(F)c1 [Example 57, 3,5-Difluoro-N-(2-methoxyethyl)-4-(3-(1-methyl-1H-pyrazol-4-yl)-1H-pyrazolo[3,4-c]pyridin-5-yl)benzamide] | ≤ 100 |
| COc1cccc(F)c1-c1cc2c(NC(=O)c3cccc(F)c3)n[nH]c2cn1 [Example 6, 3-Fluoro-N-(5-(2-fluoro-6-methoxyphenyl)-1H-pyrazolo[3,4-c]pyridin-3-yl)benzamide] | ≤ 100 |
| COc1cccc(F)c1-c1cc2c(C(=O)Nc3ccc(N4CCOCC4)cc3)n[nH]c2cn1 [Example 55, 5-(2-Fluoro-6-methoxyphenyl)-N-(4-morpholinophenyl)-1H-pyrazolo[3,4-c]pyridine-3-carboxamide] | ≤ 100 |
| Cn1cc(-c2n[nH]c3cnc(-c4c(F)cc(NC(=O)CN5CCC5)cc4OC(F)F)cc23)cn1 [Example 72, 2-(Azetidin-1-yl)-N-(3-(difluoromethoxy)-5-fluoro-4-(3-(1-methyl-1H-pyrazol-4-yl)-1H-pyrazolo[3,4-c]pyridin-5-yl)phenyl)acetamide] | ≤ 100 |
| CNCc1cc(F)c(-c2cc3c(-c4ccc(N5CCOCC5)nc4)n[nH]c3cn2)c(C(F)(F)F)c1 [Example 121, 1-(3-Fluoro-4-(3-(6-morpholinopyridin-3-yl)-1H-pyrazolo[3,4-c]pyridin-5-yl)-5-(trifluoromethyl)phenyl)-N-methylmethanamine] | ≤ 100 |
| COc1cccc(F)c1-c1cc2c(-c3cnc(C)s3)n[nH]c2cn1 [Example 36, 5-(5-(2-Fluoro-6-methoxyphenyl)-1H-pyrazolo[3,4-c]pyridin-3-yl)-2-methylthiazole] | ≤ 100 |
| Cc1cc(C2COCCN2)cc(F)c1-c1cc2c(-c3cnn(C)c3)n[nH]c2cn1 (stereo not shown) [Example 234, 3-(3-Fluoro-5-methyl-4-(3-(1-methyl-1H-pyrazol-4-yl)-1H-pyrazolo[3,4-c]pyridin-5-yl)phenyl)morpholine] | ≤ 100 |

| SMILES | Ki [nM] |
| --- | --- |
| COc1cccc(F)c1-c1cc2c(-c3cnc(N4CCOCC4)s3)n[nH]c2cn1 [Example 34, 4-(5-(5-(2-Fluoro-6-methoxyphenyl)-1H-pyrazolo[3,4-c]pyridin-3-yl)thiazol-2-yl)morpholine] | ≤ 100 |
| Cc1cccc(F)c1-c1cc2c(NC(=O)c3ccc(N4CCN(C)CC4)cc3NC3CCC(C#N)C3)n[nH]c2cn1 (stereo not shown) [Example 160, 2-(3-Cyanocyclopentylamino)-N-(5-(2-fluoro-6-methylphenyl)-1H-pyrazolo[3,4-c]pyridin-3-yl)-4-(4-methylpiperazin-1-yl)benzamide] | ≤ 100 |
| CNC1CCCc2c1cc(F)c(-c1cc3c(-c4cnn(C)c4)n[nH]c3cn1)c2F (stereo not shown) [Example 202, 5,7-Difluoro-N-methyl-6-(3-(1-methyl-1H-pyrazol-4-yl)-1H-pyrazolo[3,4-c]pyridin-5-yl)-1,2,3,4-tetrahydronaphthalen-1-amine] | ≤ 100 |
| CN1CCN(c2ccc(-c3n[nH]c4cnc(-c5c(F)cccc5CO)cc34)cc2)CC1 [Example 196, (3-Fluoro-2-(3-(4-(4-methylpiperazin-1-yl)phenyl)-1H-pyrazolo[3,4-c]pyridin-5-yl)phenyl)methanol] | ≤ 100 |
| CNCc1cc(F)c(-c2cc3c(-c4ccc(N5CCC(O)CC5)nc4)n[nH]c3cn2)c(F)c1 [Example 166, 1-(5-(5-(2,6-Difluoro-4-((methylamino)methyl)phenyl)-1H-pyrazolo[3,4-c]pyridin-3-yl)pyridin-2-yl)piperidin-4-ol] | ≤ 100 |
| CCn1cc(-c2n[nH]c3cnc(-c4c(C)cc(CNC)cc4F)cc23)cn1 [Example 133, 1-(4-(3-(1-Ethyl-1H-pyrazol-4-yl)-1H-pyrazolo[3,4-c]pyridin-5-yl)-3-fluoro-5-methylphenyl)-N-methylmethanamine] | ≤ 100 |
| CNC1CCc2c1cc(C)c(-c1cc3c(-c4cnn(C)c4)n[nH]c3cn1)c2F (stereo not shown) [Example 220, 4-Fluoro-N,6-dimethyl-5-(3-(1-methyl-1H-pyrazol-4-yl)-1H-pyrazolo[3,4-c]pyridin-5-yl)-2,3-dihydro-1H-inden-1-amine] | ≤ 100 |
| COc1cc(NC(=O)OC2CCN(C)CC2)cc(F)c1-c1cc2c(-c3cnn(C)c3)n[nH]c2cn1 [Example 76, 1-Methylpiperidin-4-yl 3-fluoro-5-methoxy-4-(3-(1-methyl-1H-pyrazol-4-yl)-1H-pyrazolo[3,4-c]pyridin-5-yl)phenylcarbamate] | ≤ 100 |
| COc1cccc(F)c1-c1cc2c(NC(=O)c3cccc(N4CCN(S(C)(=O)=O)CC4)c3)n[nH]c2cn1 [Example 22, N-(5-(2-Fluoro-6-methoxyphenyl)-1H-pyrazolo[3,4-c]pyridin-3-yl)-3-(4-(methylsulfonyl)piperazin-1-yl)benzamide] | ≤ 100 |
| Cc1cc(NC(=O)CN2C[C@H]3CC[C@@H]2C3)ccc1-c1cc2c(-c3cnn(C)c3)n[nH]c2cn1 [Example 79, 2-((1R,4S)-2-Azabicyclo[2.2.1]heptan-2-yl)-N-(3-methyl-4-(3-(1-methyl-1H-pyrazol-4-yl)-1H-pyrazolo[3,4-c]pyridin-5-yl)phenyl)acetamide] | ≤ 100 |
| CN1CCN(c2ccc(-c3n[nH]c4cnc(-c5c(F)cc(O)cc5F)cc34)cc2)CC1 [Example 48, 3,5-Difluoro-4-(3-(4-(4-methylpiperazin-1-yl)phenyl)-1H-pyrazolo[3,4-c]pyridin-5-yl)phenol] | ≤ 100 |
| COc1cccc(F)c1-c1cc2c(N3CCN(c4ccc(C#N)cc4)CC3)n[nH]c2cn1 [Example 39, 4-(4-(5-(2-Fluoro-6-methoxyphenyl)-1H-pyrazolo[3,4-c]pyridin-3-yl)piperazin-1-yl)benzonitrile] | ≤ 100 |
| CCN(C)c1cccc(-c2n[nH]c3cnc(-c4c(C)cc(CNC)cc4F)cc23)n1 [Example 118, N-Ethyl-6-(5-(2-fluoro-6-methyl-4-((methylamino)methyl)phenyl)-1H-pyrazolo[3,4-c]pyridin-3-yl)-N-methylpyridin-2-amine] | ≤ 100 |
| Cc1cc(CNCC(C)(C)O)cc(F)c1-c1cc2c(-c3cnn(C)c3)n[nH]c2cn1 [Example 184, 1-(3-Fluoro-5-methyl-4-(3-(1-methyl-1H-pyrazol-4-yl)-1H-pyrazolo[3,4-c]pyridin-5-yl)benzylamino)-2-methylpropan-2-ol] | ≤ 100 |
| CNC(C)c1cc(C)c(-c2cc3c(-c4cnn(C5CC5)c4)n[nH]c3cn2)c(F)c1 (single isomer, unassigned) [Example 229, 1-(4-(3-(1-Cyclopropyl-1H-pyrazol-4-yl)-1H-pyrazolo[3,4-c]pyridin-5-yl)-3-fluoro-5-methylphenyl)-N-methylethanamine] | ≤ 100 |
| CNCc1cc(C)c(-c2cc3c(-c4ccc(C(=O)NC)cc4)n[nH]c3cn2)c(F)c1 [Example 169, 4-(5-(2-Fluoro-6-methyl-4-((methylamino)methyl)phenyl)-1H-pyrazolo[3,4-c]pyridin-3-yl)-N-methylbenzamide] | ≤ 100 |
| COc1cccc(F)c1-c1cc2c(NC(=O)c3cccc(N4CCNCC4)c3)n[nH]c2cn1 [Example 23, N-(5-(2-fluoro-6-methoxyphenyl)-1H-pyrazolo[3,4-c]pyridin-3-yl)-3-(piperazin-1-yl)benzamide] | ≤ 100 |
